Here are results for 30 compounds from patent US9586963B2 (GENFIT, priority 2011, dated 2017).

The target in data set [1] is T1, Rev-Erb alpha (Homo sapiens, UniProt P20393).
T1 sequence (P20393 284-614 limits assumed): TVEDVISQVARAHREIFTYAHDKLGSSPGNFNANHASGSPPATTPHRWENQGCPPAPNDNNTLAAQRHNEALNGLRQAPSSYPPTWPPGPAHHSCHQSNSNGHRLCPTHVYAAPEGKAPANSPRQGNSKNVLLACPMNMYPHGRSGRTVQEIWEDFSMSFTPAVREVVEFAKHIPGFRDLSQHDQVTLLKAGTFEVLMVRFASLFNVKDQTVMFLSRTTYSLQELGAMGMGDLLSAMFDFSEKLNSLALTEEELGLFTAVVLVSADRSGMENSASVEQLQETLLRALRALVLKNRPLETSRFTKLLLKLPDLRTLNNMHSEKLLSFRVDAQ
Nature of the data set: M2H (mammalian two-hybrid) cellular activation assay of Rev-Erb alpha. The class given is cell-based. Conditions: M2H assay, HEK293 cells; for EC50: Gal4-Rev-Erb alpha / VP16-NCoR, luciferase reporter; for Emax: relative to DMSO, at the tested dose, read-out: TOP activation. An outline of the steps:
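Six-point dose-response, 18 h, 37 °C, serum-free, in HEK293 cells carrying a Gal4-RE luciferase reporter with Gal4-Rev-Erb alpha or beta plus VP16-NCoR (corepressor interaction readout). EC50 and TOP activation (%) derived from luminescence across four experiments.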

`FC(F)(F)c1ccc(-c2cccnc2)c(Oc2ccc3nnc(C(F)(F)F)n3n2)c1` [Cpd.4-126, 3-(trifluoromethyl)-6-(2-(pyridin-3-yl)-5-(trifluoromethyl)phenoxy)-[1,2,4]triazolo[4,3-b]pyridazine]: the melting point was 69 to 70 °C. The concentration giving a half-maximal response (EC50) in data set [1] fell in the range of 1000 to 6000 nM.

In the case of `COc1nccc(C)c1-c1ccc(C(F)(F)F)cc1Oc1ccc2nnc(Cl)n2n1` [Cpd.4-130, 3-chloro-6-((2-(2-methoxy-4-methylpyridin-3-yl))-5-(trifluoromethyl)phenoxy)-[1,2,4]triazolo[4,3-b]pyridazine], the melting point was 129 to 132 °C. This compound also had an EC50 in data set [1] of 1000 to 6000 nM.

Turning to `COc1ncc(F)cc1-c1ccc(C(F)(F)F)cc1Oc1ccc2nnc(Cl)n2n1` [Cpd.4-131, 3-chloro-6-((2-(2-methoxy-5-fluoropyridin-3-yl))-5-(trifluoromethyl)phenoxy)-[1,2,4]triazolo[4,3-b]pyridazine], the melting point lay within 60 to 68 °C. The compound further came in with a half-maximal effective concentration (EC50) in data set [1] of 100 to 1000 nM.

On to `Cc1cccc(-c2ccccc2Oc2ccc3nnc(Cl)n3n2)c1` [Cpd.4-132, 3-chloro-6-(3′-methylbiphenyl-2-yloxy)-[1,2,4]triazolo[4,3-b]pyridazine], for which the melting point was 51 °C. In addition, in data set [1], the EC50 was in the range of 100 to 1000 nM.

In turn, `Cc1cccc(-c2cc(F)ccc2Oc2ccc3nnc(Cl)n3n2)c1` [Cpd.4-135, 3-chloro-6-(5-fluoro-3′-methylbiphenyl-2-yloxy)-[1,2,4]triazolo[4,3-b]pyridazine] showed a melting point of 94.5 to 95.1 °C. Moreover, the EC50 in data set [1] is 100 to 1000 nM.

The compound `COc1cccc(-c2ccc(C(F)(F)F)cc2Oc2ccc3nnc(C(F)(F)F)n3n2)c1` [Cpd.4-137, 3-(trifluoromethyl)-6-(3′-methoxy-4-(trifluoromethyl)biphenyl-2-yloxy)-[1,2,4]triazolo[4,3-b]pyridazine] displayed a melting point of 102.5 °C. This compound had an EC50 in data set [1] of 100 to 1000 nM.

`Oc1cccc(-c2ccc(C(F)(F)F)cc2Oc2ccc3nnc(C(F)(F)F)n3n2)c1` [Cpd.4-138, 3-(trifluoromethyl)-6-(3′-hydroxy-4-(trifluoromethyl)biphenyl-2-yloxy)-[1,2,4]triazolo[4,3-b]pyridazine] came in with a melting point of 195 °C. Also, the EC50 in data set [1] was 1000 to 6000 nM.

`CCOc1ccc(Oc2ccc3nnc(Cl)n3n2)c(-c2ccccc2)c1` [Cpd.4-139, 3-chloro-6-(5-ethoxybiphenyl-2-yloxy)-[1,2,4]triazolo[4,3-b]pyridazine] yielded a melting point of 89.7 to 90.8 °C. In addition, the 50% effective concentration (EC50) in data set [1] lay in the range of 100 to 1000 nM.

For the compound `COC(=O)c1cccc(-c2ccccc2Oc2ccc3nnc(Cl)n3n2)c1` [Cpd.4-140, 3-Chloro-6-(3′-(methyloxycarbonyl)biphenyl-2-yloxy)-[1,2,4]triazolo[4,3-b]pyridazine], the melting point lay in the range of 236 to 246 °C. In data set [1], the 50% effective concentration (EC50) is above 6000 nM and the Emax is above 130%.

Take `Fc1ccc(Oc2ccc3nnc(C(F)(F)F)n3n2)c(-c2ccccc2)c1` [Cpd.4-141, 3-(trifluoromethyl)-6-(5-fluorobiphenyl-2-yloxy)-[1,2,4]triazolo[4,3-b]pyridazine]: the melting point lay within 85.3 to 87.7 °C. This compound also gave an EC50 in data set [1] of 1000 to 6000 nM.

Compound `COc1ccc(C(=O)c2ccccc2)c(Oc2ccc3nnc(Cl)n3n2)c1` [Cpd.4-144, 3-chloro-6-(2-benzoyl-5-methoxy-phenoxy)-[1,2,4]triazolo[4,3-b]pyridazine] came in with a melting point of 175 to 176 °C. The compound further came in with an EC50 in data set [1] of 100 to 1000 nM.

On to `O=C(c1ccccc1)c1cc(Br)ccc1Oc1ccc2nnc(Cl)n2n1` [Cpd.4-145, 3-chloro-6-(4-bromo-2-benzoyl-phenoxy)-[1,2,4]triazolo[4,3-b]pyridazine], for which the melting point lay in the range of 135 to 137 °C. In data set [1], the EC50 was in the range of 1000 to 6000 nM.

In turn, `Clc1ccc(Oc2ccc3nnc(Cl)n3n2)c(Cc2ccccc2)c1` [Cpd.4-146, 6-(2-benzyl-4-chloro-phenoxy)-3-chloro-[1,2,4]triazolo[4,3-b]pyridazine] displayed a melting point of 161 to 162 °C. Further, the EC50 in data set [1] was in the range of 100 to 1000 nM.

The compound `Fc1ccc(Oc2ccc3nnc(Cl)n3n2)c(-c2cccc(C(F)(F)F)c2)c1` [Cpd.4-148, 3-chloro-6-(5-fluoro-3′-(trifluoromethyl)biphenyl-2-yloxy)-[1,2,4]triazolo[4,3-b]pyridazine] yielded a melting point of 94.5 to 96.1 °C. In data set [1], the EC50 fell in the range of 1000 to 6000 nM.

In turn, `COc1cccc(-c2cc(F)ccc2Oc2ccc3nnc(C(F)(F)F)n3n2)c1` [Cpd.4-149, 3-(trifluoromethyl)-6-(5-fluoro-3′-methoxybiphenyl-2-yloxy)-[1,2,4]triazolo[4,3-b]pyridazine] registered a melting point of 73.7 to 76.9 °C. This compound yielded a 50% effective concentration (EC50) in data set [1] of 1000 to 6000 nM.

Compound `COc1cccc(-c2cc(F)c(F)cc2Oc2ccc3nnc(C(F)(F)F)n3n2)c1` [Cpd.4-150, 3-(trifluoromethyl)-6-(4,5-difluoro-3′-methoxybiphenyl-2-yloxy)-[1,2,4]triazolo[4,3-b]pyridazine] displayed a melting point of 52 to 55 °C. Besides, the half-maximal effective concentration (EC50) in data set [1] was in the range of 1000 to 6000 nM.

With `Oc1cccc(-c2cc(F)c(F)cc2Oc2ccc3nnc(C(F)(F)F)n3n2)c1` [Cpd.4-151, 3-(trifluoromethyl)-6-(4,5-difluoro-3′-hydroxybiphenyl-2-yloxy)-[1,2,4]triazolo[4,3-b]pyridazine], the melting point lay within 193 to 195 °C. In data set [1], this compound displayed an EC50 of 1000 to 6000 nM.

On to `COc1cccc(-c2cc(F)c(F)cc2Oc2ccc3nnc(Cl)n3n2)c1` [Cpd.4-152, 3-chloro-6-(4,5-difluoro-3′-methoxybiphenyl-2-yloxy)-[1,2,4]triazolo[4,3-b]pyridazine], for which the melting point came out at 102 °C. Also, the concentration giving a half-maximal response (EC50) in data set [1] is 1000 to 6000 nM.

`N#Cc1ccc(Oc2ccc3nnc(Cl)n3n2)c(-c2ccccc2)c1` [Cpd.4-154, 3-chloro-6-(5-cyanobiphenyl-2-yloxy)-[1,2,4]triazolo[4,3-b]pyridazine] yielded a melting point of 208 to 209 °C. Moreover, the EC50 in data set [1] was 1000 to 6000 nM.

In turn, `Clc1nnc2ccc(Oc3ccc(CN4CCCCC4)cc3-c3ccccc3)nn12` [Cpd.4-156, 3-chloro-6-(5-piperidin-1-ylmethylbiphenyl-2-yloxy)-[1,2,4]triazolo[4,3-b]pyridazine] came in with a melting point of 70 to 70.4 °C. Moreover, in data set [1], the EC50 was above 6000 nM and the Emax is above 130%.

For the compound `Clc1nnc2ccc(Oc3ccc(CNC4CC4)cc3-c3ccccc3)nn12` [Cpd.4-161, 3-chloro-6-(5-(cyclopropylaminomethyl)biphenyl-2-yloxy)-[1,2,4]triazolo[4,3-b]pyridazine], the melting point was in the range of 62.2 to 64.9 °C. In addition, in data set [1], the half-maximal effective concentration (EC50) lay within 1000 to 6000 nM.

For the compound `Clc1nnc2ccc(Oc3ccc(CNCC4CCCCC4)cc3-c3ccccc3)nn12` [Cpd.4-162, 3-chloro-6-(5-((cyclohexylmethyl)aminomethyl)biphenyl-2-yloxy)-[1,2,4]triazolo[4,3-b]pyridazine], the melting point was in the range of 53.4 to 55.7 °C. For the same compound, the EC50 in data set [1] lay within 1000 to 6000 nM.

For the compound `CC(C)N(Cc1ccc(Oc2ccc3nnc(Cl)n3n2)c(-c2ccccc2)c1)C(C)C` [Cpd.4-166, 3-chloro-6-(5-(diisopropylaminomethyl)biphenyl-2-yloxy)-[1,2,4]triazolo[4,3-b]pyridazine], the melting point was 59.1 °C. For the same compound, the EC50 in data set [1] fell in the range of 1000 to 6000 nM.

For the compound `CC(C)CCNc1ccc(-c2ccccc2)c(Oc2ccc3nnc(Cl)n3n2)c1` [Cpd.4-175, 3-chloro-6-(4-((3-methylbutyl)amino)biphenyl-2-yloxy)-[1,2,4]triazolo[4,3-b]pyridazine], the melting point lay within 145 to 150 °C. Moreover, in data set [1], the concentration giving a half-maximal response (EC50) fell in the range of 100 to 1000 nM.

The compound `Clc1nnc2ccc(Oc3cc(CN4CCCCC4)ccc3-c3ccccc3)nn12` [Cpd.4-183, 3-chloro-6-(4-piperidin-1-ylmethylbiphenyl-2-yloxy)-[1,2,4]triazolo[4,3-b]pyridazine] came in with a melting point of 163 to 164 °C. The EC50 in data set [1] lay within 1000 to 6000 nM.

`CCN(CC)Cc1ccc(-c2ccccc2)c(Oc2ccc3nnc(Cl)n3n2)c1` [Cpd.4-184, 3-chloro-6-(4-diethylaminomethylbiphenyl-2-yloxy)-[1,2,4]triazolo[4,3-b]pyridazine] displayed a melting point of 110 to 112 °C. The 50% effective concentration (EC50) in data set [1] is 1000 to 6000 nM.

`Clc1nnc2ccc(Oc3cc(NCCC4CCCCC4)ccc3-c3ccccc3)nn12` [Cpd.4-185, 3-chloro-6-(4-((cyclohexylethyl)amino)biphenyl-2-yloxy)-[1,2,4]triazolo[4,3-b]pyridazine] returned a melting point of 154 to 159 °C. In data set [1], this compound gave an EC50 of 100 to 1000 nM.

For `O=[N+]([O-])c1cccc(-c2cc(F)ccc2Oc2ccc3nnc(Cl)n3n2)c1` [Cpd.4-187, 3-chloro-6-(5-fluoro-3′-nitrobiphenyl-2-yloxy)-[1,2,4]triazolo[4,3-b]pyridazine], the melting point amounted to 190.5 °C. In addition, in data set [1], the 50% effective concentration (EC50) was in the range of 1000 to 6000 nM.

The compound `Fc1ccc(-c2cc(F)ccc2Oc2ccc3nnc(Cl)n3n2)c(F)c1` [Cpd.4-188, 3-chloro-6-(5,2′,4′-trifluorobiphenyl-2-yloxy)-[1,2,4]triazolo[4,3-b]pyridazine] showed a melting point of 143.6 °C. In addition, the half-maximal effective concentration (EC50) in data set [1] is 100 to 1000 nM.

Consider `CC(C)Nc1ccc(-c2ccccc2)c(Oc2ccc3nnc(Cl)n3n2)c1` [Cpd.4-189, 3-chloro-6-(4-isopropylamino-biphenyl-2-yloxy)-[1,2,4]triazolo[4,3-b]pyridazine], for which the melting point lay within 170 to 175 °C. The 50% effective concentration (EC50) in data set [1] was below 100 nM.
